These are literature values, as cited in publication PMC9851200, “Multiparameter phenotypic screening for endogenous TFEB and TFE3 translocation identifies novel chemical series modulating lysosome function” (Autophagy, 2022).

Set-up in all cases: method as in original PKIS2 published data
Data set [1] concerns the target T1, kinases (KINOMEscan panel) (Homo sapiens, UniProt P54753).
T1 sequence (P54753 34-998): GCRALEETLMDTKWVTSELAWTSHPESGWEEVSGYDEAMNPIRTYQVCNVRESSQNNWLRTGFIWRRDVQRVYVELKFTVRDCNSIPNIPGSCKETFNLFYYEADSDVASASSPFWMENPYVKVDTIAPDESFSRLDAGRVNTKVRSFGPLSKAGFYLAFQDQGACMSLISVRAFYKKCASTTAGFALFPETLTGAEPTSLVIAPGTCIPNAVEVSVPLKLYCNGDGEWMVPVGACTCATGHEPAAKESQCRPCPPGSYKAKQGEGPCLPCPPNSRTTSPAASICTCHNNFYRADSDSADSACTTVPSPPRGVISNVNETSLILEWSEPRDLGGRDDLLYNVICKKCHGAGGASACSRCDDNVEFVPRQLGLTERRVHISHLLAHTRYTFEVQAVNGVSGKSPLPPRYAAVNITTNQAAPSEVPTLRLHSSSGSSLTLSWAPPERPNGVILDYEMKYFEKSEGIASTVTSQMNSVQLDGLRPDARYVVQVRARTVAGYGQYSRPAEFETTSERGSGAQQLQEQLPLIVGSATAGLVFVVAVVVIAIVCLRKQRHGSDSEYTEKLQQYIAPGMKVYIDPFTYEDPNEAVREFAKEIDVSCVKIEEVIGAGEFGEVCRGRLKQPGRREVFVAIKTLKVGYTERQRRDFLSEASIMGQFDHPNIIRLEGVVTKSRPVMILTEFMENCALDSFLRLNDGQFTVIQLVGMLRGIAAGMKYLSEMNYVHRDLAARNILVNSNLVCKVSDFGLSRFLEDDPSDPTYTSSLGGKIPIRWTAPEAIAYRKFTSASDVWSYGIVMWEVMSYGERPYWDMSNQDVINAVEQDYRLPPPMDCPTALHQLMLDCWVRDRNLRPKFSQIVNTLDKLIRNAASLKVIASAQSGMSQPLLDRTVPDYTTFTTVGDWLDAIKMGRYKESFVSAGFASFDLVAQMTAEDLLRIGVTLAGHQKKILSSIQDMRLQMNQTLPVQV
As to conditions: kinase EPHB3; Published KINOMEscan; ref original PKIS2 published data; cited from earlier work.

Data set [2] deals with kinases (KINOMEscan panel) (Homo sapiens, UniProt P51617). The conditions noted are these: kinase IRAK1; Published KINOMEscan; ref original PKIS2 published data; cited from earlier work.
Data set [3] concerns the target T2, kinases (KINOMEscan panel) (Homo sapiens, UniProt Q6P3R8).
T2 sequence (Q6P3R8 1-708): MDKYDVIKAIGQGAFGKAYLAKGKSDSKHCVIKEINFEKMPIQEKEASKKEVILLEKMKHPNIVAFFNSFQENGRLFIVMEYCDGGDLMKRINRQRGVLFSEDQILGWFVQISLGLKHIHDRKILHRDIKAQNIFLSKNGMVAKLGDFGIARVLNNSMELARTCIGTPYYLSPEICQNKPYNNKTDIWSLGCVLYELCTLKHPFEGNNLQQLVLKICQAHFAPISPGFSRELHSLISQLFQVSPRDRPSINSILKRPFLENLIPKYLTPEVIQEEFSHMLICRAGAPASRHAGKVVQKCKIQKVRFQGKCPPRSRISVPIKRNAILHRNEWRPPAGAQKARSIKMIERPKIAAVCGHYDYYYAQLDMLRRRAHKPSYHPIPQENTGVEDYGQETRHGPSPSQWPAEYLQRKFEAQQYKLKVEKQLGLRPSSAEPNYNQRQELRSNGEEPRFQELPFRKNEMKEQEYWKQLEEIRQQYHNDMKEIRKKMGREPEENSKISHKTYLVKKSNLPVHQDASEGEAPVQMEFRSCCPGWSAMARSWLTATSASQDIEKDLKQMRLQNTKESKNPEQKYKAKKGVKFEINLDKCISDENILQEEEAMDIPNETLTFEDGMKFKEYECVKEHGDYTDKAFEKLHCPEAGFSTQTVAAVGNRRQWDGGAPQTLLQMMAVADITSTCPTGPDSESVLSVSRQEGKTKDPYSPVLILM
The conditions noted are these: kinase NEK5; Published KINOMEscan; ref original PKIS2 published data; cited from earlier work.

Data set [4] deals with T3, kinases (KINOMEscan panel) (Homo sapiens, UniProt Q9NRH2).
T3 sequence (Q9NRH2 1-765): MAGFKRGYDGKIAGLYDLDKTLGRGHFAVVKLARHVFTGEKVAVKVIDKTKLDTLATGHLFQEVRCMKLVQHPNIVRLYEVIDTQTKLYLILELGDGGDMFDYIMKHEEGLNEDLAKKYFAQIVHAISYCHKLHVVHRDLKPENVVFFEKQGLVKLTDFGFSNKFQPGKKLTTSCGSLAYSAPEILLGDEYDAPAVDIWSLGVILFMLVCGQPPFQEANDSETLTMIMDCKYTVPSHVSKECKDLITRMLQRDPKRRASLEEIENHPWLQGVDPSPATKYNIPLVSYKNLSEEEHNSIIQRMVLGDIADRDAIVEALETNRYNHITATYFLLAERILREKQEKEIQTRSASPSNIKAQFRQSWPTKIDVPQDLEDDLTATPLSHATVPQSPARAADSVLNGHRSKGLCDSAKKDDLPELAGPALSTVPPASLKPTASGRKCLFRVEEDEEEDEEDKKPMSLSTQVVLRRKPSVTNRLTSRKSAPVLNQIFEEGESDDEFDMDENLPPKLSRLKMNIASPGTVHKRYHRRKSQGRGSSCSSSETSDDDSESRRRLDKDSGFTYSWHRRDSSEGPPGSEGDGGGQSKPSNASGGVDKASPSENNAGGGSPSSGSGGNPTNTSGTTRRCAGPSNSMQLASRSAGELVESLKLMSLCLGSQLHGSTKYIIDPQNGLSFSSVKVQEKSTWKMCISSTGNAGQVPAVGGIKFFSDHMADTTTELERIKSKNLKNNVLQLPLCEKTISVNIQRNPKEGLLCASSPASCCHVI
The conditions noted are these: kinase SNRK; Published KINOMEscan; ref original PKIS2 published data; cited from earlier work.

The target in data set [5] is kinases (KINOMEscan panel) (Homo sapiens, UniProt P36894). As to conditions: kinase BMPR1A; Published KINOMEscan; ref original PKIS2 published data; cited from earlier work.
The target in data set [6] is kinases (KINOMEscan panel) (Homo sapiens, UniProt P21860). As to conditions: ERBB3; Published KINOMEscan; ref original PKIS2 published data; cited from earlier work.
kinases (KINOMEscan panel) (Homo sapiens, UniProt P21860), sequence (P21860 20-1342): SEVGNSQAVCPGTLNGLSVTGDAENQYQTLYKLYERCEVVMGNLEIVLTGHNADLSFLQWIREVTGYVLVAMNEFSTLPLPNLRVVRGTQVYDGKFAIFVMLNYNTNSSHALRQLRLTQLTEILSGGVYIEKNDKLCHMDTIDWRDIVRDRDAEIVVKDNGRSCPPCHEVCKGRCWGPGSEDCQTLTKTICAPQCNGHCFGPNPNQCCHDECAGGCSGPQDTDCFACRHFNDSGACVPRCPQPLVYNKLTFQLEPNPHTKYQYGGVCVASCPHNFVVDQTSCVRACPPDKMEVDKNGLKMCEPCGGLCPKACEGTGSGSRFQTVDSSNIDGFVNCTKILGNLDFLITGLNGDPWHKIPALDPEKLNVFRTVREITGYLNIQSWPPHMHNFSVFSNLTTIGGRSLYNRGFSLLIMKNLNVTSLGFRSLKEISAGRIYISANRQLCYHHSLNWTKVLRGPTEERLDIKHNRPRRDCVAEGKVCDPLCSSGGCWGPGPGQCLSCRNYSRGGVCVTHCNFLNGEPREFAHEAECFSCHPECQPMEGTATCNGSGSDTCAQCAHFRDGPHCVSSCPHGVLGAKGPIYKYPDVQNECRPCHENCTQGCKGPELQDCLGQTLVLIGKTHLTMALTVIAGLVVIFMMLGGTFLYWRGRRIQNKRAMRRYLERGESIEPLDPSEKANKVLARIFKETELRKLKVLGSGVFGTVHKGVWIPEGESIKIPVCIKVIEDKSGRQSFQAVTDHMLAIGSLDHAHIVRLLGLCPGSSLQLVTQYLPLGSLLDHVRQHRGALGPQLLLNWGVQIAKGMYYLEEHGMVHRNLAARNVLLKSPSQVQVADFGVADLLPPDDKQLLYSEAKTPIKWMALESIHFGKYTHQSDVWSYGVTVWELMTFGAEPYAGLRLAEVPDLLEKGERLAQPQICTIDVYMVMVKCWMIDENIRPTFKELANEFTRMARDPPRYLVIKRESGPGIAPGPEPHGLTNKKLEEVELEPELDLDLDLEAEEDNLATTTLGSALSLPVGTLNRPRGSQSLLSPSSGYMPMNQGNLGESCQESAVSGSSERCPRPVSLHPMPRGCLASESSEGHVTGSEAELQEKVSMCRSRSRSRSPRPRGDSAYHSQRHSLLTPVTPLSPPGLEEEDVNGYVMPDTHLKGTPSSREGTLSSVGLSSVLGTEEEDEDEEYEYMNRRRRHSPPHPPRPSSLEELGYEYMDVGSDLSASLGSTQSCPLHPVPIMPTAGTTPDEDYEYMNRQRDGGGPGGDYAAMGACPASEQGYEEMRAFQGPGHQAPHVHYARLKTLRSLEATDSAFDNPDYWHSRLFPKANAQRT

kinases (KINOMEscan panel) (Homo sapiens, UniProt P51617), sequence (P51617 whole entry): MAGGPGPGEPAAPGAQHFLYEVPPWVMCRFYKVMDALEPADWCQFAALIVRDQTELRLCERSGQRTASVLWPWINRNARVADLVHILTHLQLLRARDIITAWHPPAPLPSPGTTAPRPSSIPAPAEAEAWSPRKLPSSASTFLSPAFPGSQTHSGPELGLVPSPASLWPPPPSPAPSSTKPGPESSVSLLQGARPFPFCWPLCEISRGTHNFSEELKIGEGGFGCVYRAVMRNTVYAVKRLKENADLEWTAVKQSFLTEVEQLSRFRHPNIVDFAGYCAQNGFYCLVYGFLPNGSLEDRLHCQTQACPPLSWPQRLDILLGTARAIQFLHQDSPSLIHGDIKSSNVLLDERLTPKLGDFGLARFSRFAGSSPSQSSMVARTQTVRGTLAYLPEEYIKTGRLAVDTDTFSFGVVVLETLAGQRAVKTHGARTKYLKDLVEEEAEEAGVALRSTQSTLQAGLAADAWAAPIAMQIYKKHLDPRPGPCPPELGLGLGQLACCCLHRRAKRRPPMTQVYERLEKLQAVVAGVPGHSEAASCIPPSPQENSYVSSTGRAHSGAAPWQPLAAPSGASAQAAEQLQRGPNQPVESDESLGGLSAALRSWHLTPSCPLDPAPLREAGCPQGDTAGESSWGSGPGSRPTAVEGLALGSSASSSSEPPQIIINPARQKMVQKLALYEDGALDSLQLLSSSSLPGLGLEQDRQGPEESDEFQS
kinases (KINOMEscan panel) (Homo sapiens, UniProt P36894), sequence (P36894 24-532): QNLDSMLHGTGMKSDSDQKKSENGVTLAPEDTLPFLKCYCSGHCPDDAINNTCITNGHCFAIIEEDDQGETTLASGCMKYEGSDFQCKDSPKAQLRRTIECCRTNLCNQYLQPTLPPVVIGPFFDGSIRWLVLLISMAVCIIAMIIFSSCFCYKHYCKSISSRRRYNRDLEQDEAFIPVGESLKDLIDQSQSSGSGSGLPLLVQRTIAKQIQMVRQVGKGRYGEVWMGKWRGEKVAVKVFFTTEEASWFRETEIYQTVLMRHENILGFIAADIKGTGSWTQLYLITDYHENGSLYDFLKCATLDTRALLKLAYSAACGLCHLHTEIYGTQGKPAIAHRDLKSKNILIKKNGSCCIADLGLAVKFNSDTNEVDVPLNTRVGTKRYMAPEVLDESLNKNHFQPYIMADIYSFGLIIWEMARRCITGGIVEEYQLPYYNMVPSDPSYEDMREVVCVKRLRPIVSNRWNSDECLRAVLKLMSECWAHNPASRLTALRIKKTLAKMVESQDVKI

For `Cc1cccc(-c2nc(Nc3ccncc3)c3ccccc3n2)n1` [NK215], the “KINOMEscan EPHB3” value in data set [1] is recorded as 11. Further, the “KINOMEscan IRAK1” value in data set [2] is 0. Also, the “KINOMEscan NEK5” value in data set [3] was 10. Moreover, the “KINOMEscan SNRK” value in data set [4] is 0. For the same compound, the “KINOMEscan BMPR1A” value in data set [5] is on record as 0. Besides, the “KINOMEscan ERBB3” value in data set [6] was 43.
